Here are results for eleven compounds from patent US20260248833A1, “PYRIMIDINE NUCLEOSIDE TREATMENTS” (The Children`s Medical Center Corporation, priority 2022, published 2026).

The structures appear in SMILES notation. “Also recorded” adds a separate entry of the source.

For data set [1], the system named is super-telomerase cells (TERC-null 293T cells transfected with TERT and TERC). Description: TRF Southern blot telomere synthesis in super-telomerase cells. The data set is classed as cell-based, human. To be noted: treatment for 30 hours. As to the method: (§1) Terminal Restriction Fragment Length Analysis: genomic DNA was isolated from cells using the Invitrogen Purelink Genomic DNA mini kit (Invitrogen). 1-3 μg of gDNA was digested with RsaI and HinfI for 2-3 hrs at 37° C. and loaded onto a 0.6% agarose gel followed by Southern blotting using the Telotaggg Telomere Length Assay Kit (Roche). Quantification was performed using the WALTER webtool.
dT supplementation increases levels of dTTP and can reduce dCTP levels, leading to replication stress at high doses. Because replication stress signaling has been implicated in telomerase biology we asked whether replication stress induction explained the telomere length increases seen with dT treatment. We first tested whether telomere elongation is a universal response to replication stress-inducing compounds. […] However, cytotoxicity limited our ability to apply higher doses of replication stress-inducing compounds for time periods long enough to study telomere length changes. […] Using this system, we next asked how high-dose treatment with replication stress-inducing agents such as aphidicolin, hydroxyurea, and the TYMS inhibitor 5FU influence telomere synthesis compared to dT.

The subject of data set [2] is pCHK1-S345 and pRPA32-S33. Description: Immunoblot of replication stress signaling in super-telomerase cells. The data set is classed as cell-based, human. To be noted: highest doses, 30 hours. Background: A western blot detects proteins with antibodies after separation by electrophoresis.
The subject of data set [3] is T-free super-telomerase expressing cells (293T TERC-null). Description: Slot blot of GGAAAG repeat content in cellular DNA. To be noted: 5FU (10 μM) or HU (500 μM). The format is cell-based, human. As to the method:
Slot blotting: slot blotting was performed as described with minor modifications. Briefly, DNA concentration was normalized to 20 ng/μl using a nanodrop spectrophotometer. 3.3 μl of DNA was added to 16.5 μl of denaturation solution (0.5 M NaOH, 1.5 M NaCl) and heated to 55° C. for 30 minutes. 495 μl of neutralization solution (0.5 M Tris-HCl, 1.5 M NaCl) was added to denatured DNA and 156 μl of this solution was added in triplicate to different slots on a Bio-Dot SF Apparatus (Bio-Rad) and blotted onto Hybond N+ Membrane (Cytivia). Membrane preparation and washing was performed as described. For samples with paired GGTTAG and GGAAAG slot blots, the above recipe was doubled, and 156 μl was loaded onto parallel membranes in triplicate on each membrane. After blotting, membranes were hybridized and detected as described above for TRF Southern blots using the probe indicated in the figure. Blots were analyzed using ImageJ. Statistical analysis was performed using Graphpad prism V9.1.0.

The subject of a further data set is 293T cells. Description: Terminal restriction fragment (TRF) Southern blot telomere length, 293T cells. The format is cell-based, human. Here is the method:
(§2) Cell culture: K562 cells (ATCC) were grown in RPMI1 1640 (Gibco) media supplemented with 10% fetal bovine serum. 293T cells (ATCC) were grown in DMEM (Gibco) supplemented with 10% fetal bovine serum, and were subcultured using 0.05% trypsin (Gibco). iPSCs were derived, characterized and cultured as previously described. iPSCs were grown in Essential 8 Media (Life Technologies) supplemented with the ROCK inhibitor Y271632 (Stem Cell Technologies) at 10 μM on plates coated with hES qualitied Matrigel matrix (Corning) and were subcultured using Accutase (Stem Cell Technologies).
as §1

Another data set relates to K562 cells. Description: Terminal restriction fragment (TRF) Southern blot telomere length, K562 cells. The format is cell-based, human. To be noted: K562 cells. As to the method: as §2, §1
The test system of a further data set is telomere length. Description: Telomere length with cytidine and uridine (FIG. 23). The data set is classed as cell-based.
For data set [4] the following is noted: co-administration with dT; cited from earlier work.
For data set [5] the following is noted: at pH of about 7; cited from earlier work.
Where [6] appears, read: 10 days, doses up to those maximally tolerated.
The mark [7] stands for this setting: 8 days, doses up to those maximally tolerated.
Setting [8] is: 100 μM of the indicated deoxynucleoside(s) for 9 days.
[9] abbreviates: 100 μM of the indicated deoxynucleoside(s) for 8 days.
The mark [10] stands for this setting: baseline 16 μM dT, plus 100 μM additional dT or 1 mM dU, 10 days.

Consider `O=c1[nH]cc(F)c(=O)[nH]1` [5FU, 5-fluorouracil, reference compound], for which the “telomere repeat synthesis / telomere elongation by telomerase” value in data set [1] is on record as “ablated telomere elongation by telomerase; also recorded: completely inhibited telomere elongation; also recorded: ablated telomere lengthening in super-telomerase cells”. Moreover, the replication stress signaling entry in data set [2] is reported as “induced similar levels of replication stress signaling”. For the same compound, the “levels of GGAAAG repeats” value in data set [3] is listed as “reduced levels of GGAAAG repeats; also recorded: inhibited T-free telomerase activity”.

As for `O=C1NC(=NCc2cccs2)S/C1=C\c1ccc2ncccc2c1` [RO-3306, reference compound], the telomere length entry in the data set with 293T cells (setting [6]) and in the data set with K562 cells (setting [7]) was “No changes were found in telomere length” each time.

Turning to `C[C@@]1(CO)[C@H](O)CC[C@@]2(C)[C@H]1CC[C@H]1C[C@@H]3C[C@@]12CC[C@]3(O)CO` [aphidicolin, reference compound], in the data set on 293T cells (setting [6]), the telomere length result is on record as “telomere elongation after 10 days”. In data set [1], the “telomere repeat synthesis / telomere elongation by telomerase” value is on record as “drove detectable increases in telomere length, albeit to a lesser extent than dT”. Further, the replication stress signaling entry in data set [2] was “induced similar levels of replication stress signaling”.

Consider `Nc1ccn([C@@H]2O[C@H](CO)[C@@H](O)[C@H]2O)c(=O)n1` [cytidine, 4-amino-1-[(2R,3R,4S,5R)-3,4-dihydroxy-5-(hydroxymethyl)oxolan-2-yl]pyrimidin-2 (1H)-one], for which the telomere length result in the data set with telomere length is “increase telomere length”. The “toxicity caused by dT” value in data set [4] was “reduce toxicity caused by dT”.

Consider `Nc1ncnc2c1ncn2[C@H]1C[C@H](O)[C@@H](CO)O1` [dA, deoxyadenosine, reference compound], for which the telomere length result with 293T cells (setting [8]) is “but not deoxyadenosine (dA) or deoxyguanosine (dG), rapidly and robustly increases telomere length”; in the data set on K562 cells (setting [9]) it was “but not deoxyadenosine (dA) or deoxyguanosine (dG), rapidly and robustly increases telomere length”.

Regarding `Nc1ccn([C@H]2C[C@H](O)[C@@H](CO)O2)c(=O)n1` [dC, 4-azmino-1-[(2R,4S,5R)-4-hydroxy-5-(hydroxymethyl)oxolan-2-yl]pyrimidin-2 (1H)-one], the water solubility entry in data set [5] was “about 870 mg/mL”. For the same compound, the “toxicity caused by dT” value in data set [4] is “reduce toxicity caused by dT; also recorded: reduces toxicity of dT and improves cell growth compared to dT alone”.

Consider `Nc1nc2c(ncn2[C@H]2C[C@H](O)[C@@H](CO)O2)c(=O)[nH]1` [dG, deoxyguanosine, reference compound], for which the telomere length entry in the data set on 293T cells (setting [8]) is “but not deoxyadenosine (dA) or deoxyguanosine (dG), rapidly and robustly increases telomere length”; in the data set on K562 cells (setting [9]), “but not deoxyadenosine (dA) or deoxyguanosine (dG), rapidly and robustly increases telomere length”.

For `O=c1ccn([C@H]2C[C@H](O)[C@@H](CO)O2)c(=O)[nH]1` [dU, 1-((2R,4S,5R)-4-Hydroxy-5-(hydroxymethyl)tetrahydrofuran-2-yl)pyrimidine-2,4 (1H,3H)-dione], the “concentration giving telomere elongation to a degree similar to dT” value with 293T cells (10× the dT concentration) came to 1 mM. In addition, the “telomere length with baseline of 16 μM dT” value was “increased telomere length” in the data set on 293T cells (added dU, 10 days) and “increased telomere length” with K562 cells (added dU, 10 days). Besides, the “telomere lengthening in TYMS-knockout cells” value in the data set with 293T cells (setting [10]) and with K562 cells (setting [10]) was “no longer able to promote telomere lengthening” each time. The telomere length result in the data set on 293T cells (dU 1 mM, 10 days (FIG. 9)) is recorded as “elongate telomeres to a degree similar to dT”; in the data set on 293T cells (dU 1 mM, 10 days (FIG. 9), listed as Deoxyuridine), “promotes telomere elongation”. Moreover, the water solubility entry in data set [5] is reported as “about 5 mg/ml”.

With `Nc1nc2ncc(CNc3ccc(C(=O)N[C@@H](CCC(=O)O)C(=O)O)cc3)nc2c(=O)[nH]1` [folate, folic acid, reference compound], the telomere length result is on record as “did not yield telomere elongation” in the data set on 293T cells (folate supplementation up to 1 mM, 10 days) and “but not folic acid supplementation promotes telomere elongation” with 293T cells (folate supplementation up to 1 mM, 10 days, listed as folic acid).

Consider `NC(=O)NO` [hydroxyurea, reference compound], for which the telomere length entry in the data set with 293T cells (setting [6]) is “No changes were found in telomere length; also recorded: did not change telomere length after 10 days”; in the data set with K562 cells (setting [7]), “No changes were found in telomere length”. Also, the “telomere repeat synthesis / telomere elongation by telomerase” value in data set [1] is given as “ablated telomere elongation by telomerase”. For the same compound, the replication stress signaling result in data set [2] is on record as “induced similar levels of replication stress signaling”. For the same compound, in data set [3], the “levels of GGAAAG repeats” value is on record as “reduced levels of GGAAAG repeats”.

Take `O=c1ccn([C@@H]2O[C@H](CO)[C@@H](O)[C@H]2O)c(=O)[nH]1` [uridine, 1-[(2R,3R,4S,5R)-3,4-Dihydroxy-5-(hydroxymethyl)oxolan-2-yl]pyrimidine-2,4 (1H,3H)-dione]: the telomere length result in the data set with telomere length is “increase telomere length”.
